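In this assay, cells in 96-well plates receive the compound at five concentrations for 48 hours. Endpoints are linearly interpolated between the surrounding concentrations. Abbreviation: GI50, concentration required for 50% inhibition of growth.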 Active and inactive are the calls of the source. Cut-off read from the data, not from the text of the source: active = GI50 up to about 1.1 µM and inactive = higher.
Columns and labels:
Assay in all cases: inhibition of tumour cell growth, NCI panel, 48 h
SK-MEL-5 = test system: SK-MEL-5
SR = test system: SR
A549 = test system: A549
MDA-MB-435 = test system: MDA-MB-435
OVCAR-8 = test system: OVCAR-8
ACHN = test system: ACHN
HT-29 = test system: HT-29
NCI/ADR-RES = test system: NCI/ADR-RES
CAKI-1 = test system: CAKI-1
SK-MEL-28 = test system: SK-MEL-28
A498 = test system: A498
HOP-62 = test system: HOP-62
SNB-19 = test system: SNB-19
MCF7 = test system: MCF7
HL-60 = test system: HL-60
UACC-62 = test system: UACC-62
MOLT-4 = test system: MOLT-4
KM12 = test system: KM12
RPMI-8226 = test system: RPMI-8226
SK-OV-3 = test system: SK-OV-3
UO-31 = test system: UO-31
K562 = test system: K562
786-0 = test system: 786-0
CCRF-CEM = test system: CCRF-CEM
SF-539 = test system: SF-539
UACC-257 = test system: UACC-257
SF-268 = test system: SF-268
OVCAR-4 = test system: OVCAR-4
HCT-15 = test system: HCT-15
HCT-116 = test system: HCT-116
U-251 = test system: U-251
Hs-578T = test system: Hs-578T
MDA-N = test system: MDA-N
SNB-75 = test system: SNB-75
Malme-3M = test system: Malme-3M
COLO 205 = test system: COLO 205
IGROV-1 = test system: IGROV-1
DU-145 = test system: DU-145
M14 = test system: M14
NCI-H460 = test system: NCI-H460
HCC 2998 = test system: HCC 2998
NCI-H23 = test system: NCI-H23
PC-3 = test system: PC-3
SK-MEL-2 = test system: SK-MEL-2
MDA-MB-231 = test system: MDA-MB-231
T47D = test system: T47D
SF-295 = test system: SF-295
TK-10 = test system: TK-10
SW-620 = test system: SW-620
NCI-H226 = test system: NCI-H226
EKVX = test system: EKVX
LOX IMVI = test system: LOX IMVI
SN12C = test system: SN12C
BT-549 = test system: BT-549
OVCAR-5 = test system: OVCAR-5
NCI-H522 = test system: NCI-H522
HOP-92 = test system: HOP-92
OVCAR-3 = test system: OVCAR-3
RXF 393 = test system: RXF 393

C=CCOC(=O)Cn1cc(C)c(=O)[nH]c1=O
GI50 (SK-MEL-5): > 100 µM (inactive)
GI50 (SR): > 100 µM (inactive)
GI50 (A549): > 100 µM (inactive)
GI50 (MDA-MB-435): > 100 µM (inactive)
GI50 (OVCAR-8): > 100 µM (inactive)
GI50 (ACHN): > 100 µM (inactive)
GI50 (HT-29): > 100 µM (inactive)
GI50 (NCI/ADR-RES): > 100 µM (inactive)
GI50 (CAKI-1): > 100 µM (inactive)
GI50 (SK-MEL-28): > 100 µM (inactive)
GI50 (A498): > 100 µM (inactive)
GI50 (HOP-62): > 100 µM (inactive)
GI50 (SNB-19): > 100 µM (inactive)
GI50 (MCF7): > 100 µM (inactive)
GI50 (HL-60): > 100 µM (inactive)
GI50 (UACC-62): > 100 µM (inactive)
GI50 (MOLT-4): > 100 µM (inactive)
GI50 (KM12): > 100 µM (inactive)
GI50 (RPMI-8226): > 100 µM (inactive)
GI50 (SK-OV-3): > 100 µM (inactive)
GI50 (UO-31): > 100 µM (inactive)
GI50 (K562): > 100 µM (inactive)
GI50 (786-0): > 100 µM (inactive)
GI50 (CCRF-CEM): > 100 µM (inactive)
GI50 (SF-539): > 100 µM (inactive)
GI50 (UACC-257): > 100 µM (inactive)
GI50 (SF-268): > 100 µM (inactive)
GI50 (OVCAR-4): > 100 µM (inactive)
GI50 (HCT-15): > 100 µM
GI50 (HCT-116): > 100 µM (inactive)
GI50 (U-251): > 100 µM (inactive)
GI50 (Hs-578T): > 100 µM (inactive)
GI50 (MDA-N): > 100 µM (inactive)
GI50 (SNB-75): > 100 µM (inactive)
GI50 (Malme-3M): > 100 µM (inactive)
GI50 (COLO 205): > 100 µM (inactive)
GI50 (IGROV-1): > 100 µM (inactive)
GI50 (DU-145): > 100 µM (inactive)
GI50 (M14): > 100 µM (inactive)
GI50 (NCI-H460): > 100 µM (inactive)
GI50 (HCC 2998): > 100 µM (inactive)
GI50 (NCI-H23): > 100 µM (inactive)
GI50 (PC-3): > 100 µM (inactive)
GI50 (SK-MEL-2): > 100 µM (inactive)
GI50 (MDA-MB-231): > 100 µM (inactive)
GI50 (T47D): > 100 µM (inactive)
GI50 (SF-295): > 100 µM (inactive)
GI50 (TK-10): > 100 µM (inactive)
GI50 (SW-620): > 100 µM (inactive)
GI50 (NCI-H226): > 100 µM (inactive)
GI50 (EKVX): > 100 µM (inactive)
GI50 (LOX IMVI): > 100 µM (inactive)
GI50 (SN12C): > 100 µM (inactive)

COc1ccc2c(c1)CCN1CCCc3ccccc3C21 (stereo not drawn)
GI50 (SK-MEL-5): 58.5 µM (inactive)
GI50 (SR): 31.8 µM (inactive)
GI50 (A549): 50.5 µM (inactive)
GI50 (MDA-MB-435): 20.5 µM (inactive)
GI50 (OVCAR-8): 91 µM (inactive)
GI50 (ACHN): 54.2 µM (inactive)
GI50 (HT-29): 28.2 µM (inactive)
GI50 (NCI/ADR-RES): 41.3 µM (inactive)
GI50 (CAKI-1): 54.1 µM (inactive)
GI50 (BT-549): 28.1 µM (inactive)
GI50 (SK-MEL-28): 50.1 µM (inactive)
GI50 (A498): > 100 µM (inactive)
GI50 (HOP-62): 69.2 µM (inactive)
GI50 (SNB-19): 94.6 µM (inactive)
GI50 (MCF7): 25.4 µM (inactive)
GI50 (UACC-62): 31 µM (inactive)
GI50 (MOLT-4): 32.1 µM (inactive)
GI50 (OVCAR-5): 42.9 µM (inactive)
GI50 (KM12): 33.7 µM (inactive)
GI50 (RPMI-8226): 22.3 µM (inactive)
GI50 (SK-OV-3): 46.3 µM (inactive)
GI50 (UO-31): 29.4 µM (inactive)
GI50 (K562): 30.1 µM (inactive)
GI50 (786-0): 38.4 µM (inactive)
GI50 (CCRF-CEM): 37.5 µM (inactive)
GI50 (SF-539): 17.5 µM (inactive)
GI50 (UACC-257): 41.9 µM (inactive)
GI50 (SF-268): 36 µM (inactive)
GI50 (OVCAR-4): > 100 µM (inactive)
GI50 (HCT-15): 37.6 µM
GI50 (HCT-116): 30.9 µM (inactive)
GI50 (U-251): 37.2 µM (inactive)
GI50 (Hs-578T): 42.1 µM (inactive)
GI50 (SNB-75): 22 µM (inactive)
GI50 (COLO 205): 27.6 µM (inactive)
GI50 (IGROV-1): 47.6 µM (inactive)
GI50 (DU-145): > 100 µM (inactive)
GI50 (NCI-H522): 34.4 µM (inactive)
GI50 (M14): 15.9 µM (inactive)
GI50 (HCC 2998): 23 µM (inactive)
GI50 (HOP-92): 46.2 µM (inactive)
GI50 (NCI-H23): 45.8 µM (inactive)
GI50 (OVCAR-3): 79.3 µM (inactive)
GI50 (PC-3): 36.9 µM (inactive)
GI50 (SK-MEL-2): 46.3 µM (inactive)
GI50 (MDA-MB-231): 23.1 µM (inactive)
GI50 (T47D): 45.1 µM (inactive)
GI50 (SF-295): 26.4 µM (inactive)
GI50 (TK-10): > 100 µM (inactive)
GI50 (SW-620): 52 µM (inactive)
GI50 (NCI-H226): 28.1 µM (inactive)
GI50 (EKVX): > 100 µM (inactive)
GI50 (RXF 393): 65.8 µM (inactive)
GI50 (LOX IMVI): 22.4 µM (inactive)
GI50 (SN12C): 42.7 µM (inactive)
